IC50 data for 39 compounds are collected here from ChEMBL document CHEMBL1212812, “Multi-target spectral moment QSAR versus ANN for antiparasitic drugs against different parasite species” (Bioorg Med Chem, 2010).

Holding throughout (assay type): functional, organism-based
The test system of assay [1] is Trypanosoma brucei. Kind of assay: Antimicrobial activity against Trypanosoma brucei.
Assay [2] concerns Plasmodium falciparum. Nature of the assay: Antimicrobial activity against Plasmodium falciparum.
Assay [3] deals with Trypanosoma cruzi. Nature of the assay: Antimicrobial activity against Trypanosoma cruzi. Conditions: Trypanosoma cruzi.
Assay [4] relates to Cryptosporidium parvum. Kind of assay: Antimicrobial activity against Cryptosporidium parvum.
Assay [5] concerns Leishmania major. Nature of the assay: Antimicrobial activity against Leishmania major.

The term IC50 denotes the concentration needed to halve the response being measured. `Cn1c2nc3ccc(C#N)cc3c-2cc2ccccc21`: the IC50 in assay [1] and in assay [2] was 32 µM each time.

Consider `COc1cccc2c1cc1c3ccccc3nc-1n2C`, for which, in assay [1], the midpoint of inhibition, the IC50, lay at 1 µM.

`CNC12CC3CC(C1)CC(C(C)C)(C3)C2` displayed an IC50 in assay [1] of 6 µM.

In the case of `COc1ccc2[nH]c3nc4ccccc4c-3cc2c1`, the IC50 in assay [1] and in assay [2] was 32 µM throughout.

For the compound `Cn1c2nc3ccccc3c-2cc2ccc(Br)cc21`, the IC50 in assay [1] was 27 µM; in assay [3], 32 µM; in assay [2] it was 30 µM.

On to `CCCC1(CCC)CC(C)(C)CC(C)(N)C1` (configuration not stated), for which the IC50 in assay [1] worked out at 1 µM.

Turning to `Fc1ccc2[nH]c3nc4ccccc4c-3cc2c1`, the half-inhibitory concentration (IC50) in assay [1], in assay [3] and in assay [2] was 32 µM each time.

`CCCC1(C)CC(C)(C)CC(C)(N)C1` (configuration not stated): it took 2 µM to reach half-maximal inhibition in assay [1] (IC50).

With `NCCCC12CC3CC(CC(C3)C1)C2`, the IC50 in assay [1] came to 1 µM.

The compound `Nc1nc(N)c2nc(Cc3ccc(Cl)cc3)c(Cc3ccc(Cl)cc3)nc2n1` yielded an IC50 in assay [4] of 1000 nM.

`Nc1nc(N)c2cc(CN3c4ccccc4C=CC4C=CC=CC43)cnc2n1` (configuration not stated) displayed a concentration for half-maximal inhibition (IC50) in assay [4] of 1000 nM.

In the case of `Nc1nc(N)c2nc(Cc3ccc(Cl)c(Cl)c3)c(Cc3ccc(Cl)c(Cl)c3)nc2n1`, the IC50 in assay [4] is 4000 nM.

In turn, `COc1ccc(OC)c(-c2sc3nc(N)nc(N)c3c2C)c1` returned a concentration for half-maximal inhibition (IC50) in assay [4] of 1000 nM.

For `Clc1ccc2[nH]c3nc4ccccc4c-3cc2c1`, the half-maximal inhibitory concentration (IC50) in assay [1], in assay [3] and in assay [2] was 32 µM throughout.

In assay [4], `CN(Cc1cnc2nc(N)nc(N)c2n1)c1ccc(C(=O)NC(CO)CCO)cc1` (configuration not stated) had an IC50 of 2000 nM.

Compound `CCNC1(C)CC(C)(C)CC(C)(C)C1` showed a half-inhibitory concentration (IC50) in assay [1] of 6 µM.

Take `Cn1c2nc3ccccc3c-2cc2cc(Cl)ccc21`: the IC50 in assay [1] was found to be 1 µM.

In assay [4], `Nc1nc(N)c2nc(CN3c4ccccc4SC4C=CC=CC43)cnc2n1` (configuration not stated) yielded an IC50 of 1000 nM.

As to `Cn1c2nc3ccccc3c-2cc2ccc(Cl)cc21`, the IC50 in assay [1] came out at 9 µM; in assay [3], 17 µM; in assay [2] it was 5 µM.

As for `COc1cccc2nc(N)nc(N)c12`, the IC50 in assay [4] amounted to 3000 nM.

For the compound `COc1cc(Cc2sc3nc(N)nc(N)c3c2C)cc(OC)c1OC`, the IC50 in assay [4] was found to be 2000 nM.

For `CCCC1CC(C)(C)CC(C)(N)C1` (configuration not stated), in assay [1], the IC50 amounted to 3 µM.

As for `COc1cc(CCc2cc3c(N)nc(N)nc3s2)c(Br)c(OC)c1OC`, the midpoint of inhibition in assay [4], the IC50, lay at 5000 nM.

The compound `C=CC(C)(C)c1cc(/C=C/C(=O)c2ccc(O)cc2)c(OC)cc1O` [LICOAGROCHACONE A] had an IC50 in assay [5] of 14 µM.

With `CCCCC12CC3CC(C1)CC(NC)(C3)C2`, in assay [1], it took 2 µM to reach half-maximal inhibition (IC50).

`Nc1nc(N)c2c(n1)CCC(c1ccccc1)C2` (configuration not stated) yielded an IC50 in assay [4] of 2000 nM.

In assay [1], `Cn1c2nc3ccccc3c-2cc2cc([N+](=O)[O-])ccc21` yielded an IC50 of 1 µM.

Consider `Clc1cc(Cl)c2[nH]c3nc4ccccc4c-3cc2c1`, for which the IC50 in assay [1] was found to be 32 µM.

With `CCC1CCc2nc(N)nc(N)c2C1` (configuration not stated), inhibition in assay [4] was half-maximal at 9000 nM (IC50).

Turning to `Cn1c2nc3ccc(C#N)cc3c-2cc2cc(C(F)(F)F)ccc21`, the IC50 in assay [1] and in assay [3] was 32 µM throughout.

Compound `COc1cc(Cc2sc3nc(N)nc(N)c3c2C)c(Br)c(OC)c1OC` gave an IC50 in assay [4] of 2000 nM.

Turning to `COc1cc(Cc2cnc(N)nc2N)cc(OC)c1OC` [TRIMETHOPRIM], in assay [4], the IC50 was determined as 4000 nM.

Take `COc1cc(CN2CCc3nc(N)nc(N)c3C2)c(Br)c(OC)c1OC`: the IC50 in assay [4] came to 3000 nM.

In the case of `Cn1c2nc3ccccc3c-2cc2ccc(C(F)(F)F)cc21`, the IC50 in assay [1] turned out to be 17 µM; in assay [3], 32 µM; in assay [2], 16 µM.

In assay [1], `CSc1ccc2c(c1)cc1c3ccccc3nc-1n2C` gave an IC50 of 1 µM.

As for `Nc1nc(N)c2cc(/C=C/c3ccccc3)ccc2n1`, the IC50 in assay [4] stood at 1000 nM.

In the case of `CCCC1(N)CC(C)(C)CC(C)(C)C1`, in assay [1], the IC50 was found to be 6 µM.

In assay [4], `COc1ccc(OC)c(Cc2sc3nc(N)nc(N)c3c2C)c1` had an IC50 of 1000 nM.

As for `Nc1nc(N)c2c(n1)-c1ccsc1CC2`, half-maximal inhibition in assay [4] (IC50) required 30000 nM.
